Data from patent US7731960B2, “Antibodies that inhibit transport activity of peptide transporters” (Chugai Seiyaku Kabushiki Kaisha, priority 2003, dated 2010).

Tests used:
Assay type in all cases: cell-based
human PepT1 = biological target: T1, human PepT1 (Homo sapiens, UniProt P46059); test: [14C] glycylsarcosine uptake into BaF3/PepT1 cells; details: FIG. 2
T1 sequence (P46059 1-708): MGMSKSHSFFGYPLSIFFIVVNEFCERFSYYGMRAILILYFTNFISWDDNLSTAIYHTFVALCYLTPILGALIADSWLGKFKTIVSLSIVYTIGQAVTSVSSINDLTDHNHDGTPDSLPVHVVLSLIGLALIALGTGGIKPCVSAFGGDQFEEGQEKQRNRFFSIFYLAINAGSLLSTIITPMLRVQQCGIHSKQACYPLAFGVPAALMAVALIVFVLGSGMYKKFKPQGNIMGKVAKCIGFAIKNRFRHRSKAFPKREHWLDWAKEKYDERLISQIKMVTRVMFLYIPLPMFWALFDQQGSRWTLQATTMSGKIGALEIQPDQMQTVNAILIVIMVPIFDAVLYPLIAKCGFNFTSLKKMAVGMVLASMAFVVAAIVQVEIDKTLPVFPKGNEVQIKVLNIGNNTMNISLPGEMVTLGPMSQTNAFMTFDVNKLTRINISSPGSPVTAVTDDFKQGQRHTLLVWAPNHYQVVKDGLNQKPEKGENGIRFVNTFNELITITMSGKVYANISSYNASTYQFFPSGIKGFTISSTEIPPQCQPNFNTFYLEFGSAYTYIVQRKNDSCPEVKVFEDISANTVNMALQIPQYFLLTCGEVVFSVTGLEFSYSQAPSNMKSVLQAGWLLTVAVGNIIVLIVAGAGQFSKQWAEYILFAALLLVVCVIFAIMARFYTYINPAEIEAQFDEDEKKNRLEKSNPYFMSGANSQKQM
Description: FIG. 2 is a graph showing the PepT1 inhibiting ability of AT-264 in BaF3 cells.
The ability of AT-264 to inhibit PepT1 was examined by forcedly expressing human PepT1 in mouse bone marrow-derived BaF3 cells (hereinafter abbreviated as BaF3/PepT1).

human PepT2 = biological target: T2, human PepT2 (Homo sapiens, UniProt Q16348); test: [3H] glycylsarcosine uptake into BaF3/PepT2 cells; details: FIG. 4
T2 construct: expressed in transfected cells; host or cells: murine bone marrow-derived BaF3 cells
T2 sequence (Q16348 1-729): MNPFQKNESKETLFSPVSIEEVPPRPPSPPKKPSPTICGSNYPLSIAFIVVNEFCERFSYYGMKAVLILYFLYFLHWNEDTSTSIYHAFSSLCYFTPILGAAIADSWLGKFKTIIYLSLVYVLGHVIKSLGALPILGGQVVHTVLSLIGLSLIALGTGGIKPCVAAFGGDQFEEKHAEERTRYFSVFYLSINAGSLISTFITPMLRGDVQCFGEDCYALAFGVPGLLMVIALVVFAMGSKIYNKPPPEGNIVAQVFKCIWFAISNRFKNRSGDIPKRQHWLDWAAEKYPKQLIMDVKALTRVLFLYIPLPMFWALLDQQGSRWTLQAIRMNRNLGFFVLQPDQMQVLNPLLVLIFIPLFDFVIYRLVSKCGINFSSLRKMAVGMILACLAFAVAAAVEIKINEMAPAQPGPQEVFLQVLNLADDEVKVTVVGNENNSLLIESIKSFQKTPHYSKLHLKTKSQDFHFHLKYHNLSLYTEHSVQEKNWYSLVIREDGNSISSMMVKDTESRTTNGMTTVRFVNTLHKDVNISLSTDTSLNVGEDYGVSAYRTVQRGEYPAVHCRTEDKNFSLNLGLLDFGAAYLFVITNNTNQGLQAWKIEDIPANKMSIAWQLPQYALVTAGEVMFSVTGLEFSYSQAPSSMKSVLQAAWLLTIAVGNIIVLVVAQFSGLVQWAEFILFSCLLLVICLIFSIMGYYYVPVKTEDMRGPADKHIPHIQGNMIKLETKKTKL
Description: FIG. 4 is a graph showing the PepT2 inhibiting ability of AT-264 in BaF3/PepT2. The data are shown as an average±S.D. (n=3 to 4).
The ability of AT-264 to inhibit PepT2 was examined using a murine bone marrow-derived cell line BaF3 in which human PepT2 is forcedly expressed (hereinafter, abbreviated as BaF3/PepT2).

[1] = test system: human pancreatic cancer cell line AsPC-1; test: Cell growth inhibition of AsPC-1, MTS assay after six days of culture
Procedure: FIG. 3 is a graph showing the cell growth inhibitory effect of AT-264 against human pancreatic cancer cell line AsPC-1. The data are shown as an average±S.D. (n=3 to 4).
(§1) AT-264 was dissolved in RPMI1640-10 mM Hepes (hereinafter, abbreviated as ‘the medium’) containing 0.5% ethanol and 0.5% DMSO to prepare 2.5 mM AT-264 solution. Then, this solution was diluted with the medium to prepare 0.625 mM and 0.0625 mM AT-264 solutions.
A 5×10^4 cells/mL solution of human pancreatic cancer cell line AsPC-1 was prepared using a medium containing 50% FBS. This suspension was seeded at 40 μL/well (2×10^3 cells) onto a 96-well plate pre-coated with Collagen type I, and 160 μL of the AT-264 solution was added. This was cultured for six days in a CO2 incubator (on the second day of culture, 100 units/mL penicillin and 0.1 mg/mL streptomycin were added). On the sixth day of culture, the number of viable cells was quantified by MTS assay.

[2] = test system: human pancreatic cancer cell line BxPC-3; test: Cell growth inhibition of BxPC-3, MTS assay after six days of culture
Procedure: FIG. 5 is a graph showing the cell growth inhibitory effect of AT-264 against human pancreatic cancer cell line BxPC-3. The data are shown as an average±S.D. (n=6).
as §1, with “Hepes with 100 units/mL penicillin and 0.1 mg/mL streptomycin” for “Hepes”, “Furthermore,” for “Then,”
5×10^4 cells/mL solution of BxPC-3 was prepared using the medium containing 50% FBS. This suspension was seeded at 40 μL/well (2×10^3 cells) onto a 96-well plate pre-coated with Collagen type I, and 160 μL of AT-264 solution was added. This was cultured for six days in a CO2 incubator, and on the sixth day of culture, the number of viable cells was quantified by MTS assay.

N=C(N)c1cccc(CC(NS(=O)(=O)NCc2cccc3ccccc23)C(=O)N2CCCCC2C(=O)O)c1 (centres unmarked) [AT-264]
uptake of [14C] glycylsarcosine into cells (human PepT1): inhibited in a concentration-dependent manner
uptake of [3H] glycylsarcosine into cells (human PepT2): inhibited in a concentration-dependent manner
cell growth inhibition ([1]; AsPC-1, 0.5 mM AT-264, six days, MTS assay): slight
morphological changes under the microscope ([1]; AsPC-1 in the presence of AT-264): not observed
inhibition at 2000 µM ([1]; Homo sapiens, ASPC1, 144 h, AsPC-1, 2 mM AT-264, six days, MTS assay): ~30%
morphological changes under the microscope ([2]; BxPC-3 in the presence of AT-264): not observed
inhibition at 500 µM ([2]; Homo sapiens, 144 h, BxPC-3, 0.5 mM AT-264, six days, MTS assay): ~20%
inhibition at 2000 µM ([2]; Homo sapiens, 144 h, BxPC-3, 2 mM AT-264, six days, MTS assay): ~75%
